Read-outs that look alike come from different tables or passages of the source. Each block holds one compound with its values, some of them ahead of it.
Key:
MDA-MB-231 [1] = experiment: MTS assay cell viability, MDA-MB-231; type: cell-based; conditions: Homo sapiens, read-out: IC50 values according to the cell viability inhibition
Description: MDA-MB-231 (Cell seeding numbers: 0.8(M231) x 10^4 cells/wells (confluency ≧ 25%), which is a human triple-negative breast cancer (TNBC) cell line, and JIMT-1 (Cell seeding numbers: 0.8(JIMT) x 10^4 cells/wells (confluency ≧ 25%)), which is a HER2 positive breast cancer (HER2+ BC) cell line, were used in the experiment.
The above cell lines were cultured in Dulbecco's modified Eagle's medium (DMEM) containing 10% fetal bovine serum (FBS), streptomycin-penicillin (100 U/mL), and Fungizone (0.625 µg/mL) at 5% CO2 and 37°C.
(§1) The human breast cancer cell lines MDA-MB-231 and JIMT-1 were treated with chromene-benzimidazole derivatives of Formulas 1-1 to 1-53 at various concentrations of 0, 1, and 5 µM, respectively, for 72 hours, and then cell viability was measured using the MTS assay technique. In the MTS assay, cells were attached to a 96-well plate for 24 hours, treated with the chromene-benzimidazole derivative for 72 hours, developed with MTS (3-(4,5-dimethylthiazol-2-yl)-5-(3-carboxymethoxyphenyl)-2-(4-sulfophenyl)-2H-tetrazolium) for 4 hours, and then the absorbance was measured at 490 nm using a Spectramax Plus384 microplate analyzer.
(§2) After treating the triple-negative breast cancer cell lines MDA-MB-231 and BT549 with the chromene-benzimidazole derivative Compound (1-1) by concentration (0, 0.01, 0.05, 0.1, 0.5, 1, 5, 10, 20, and 40 µM) for 72 hours, concentration-dependent cell viability (MTS assay) inhibition and IC50 values according to the cell viability inhibition were confirmed and shown in FIGS. 7A and 7B.
The […] MDA-MB-231 and […] were treated with the chromene-benzimidazole derivative compounds (1-13, 1-19, and 1-22) by concentration (0, 0.01, 0.05, 0.1, 0.25, 0.5, 1, 2, and 5 µM) for 72 hours. Detailed treatment conditions were the same as disclosed in Example 2.1. Concentration-dependent cell viability (MTS assay) inhibition and IC50 values according to the cell viability inhibition were confirmed and shown in FIG. 9.
After treating the triple-negative breast cancer cell line MDA-MB-231 with the chromene-benzimidazole derivative compounds (1-9, 1-10, 1-11, 1-15, 1-16, and 1-17) by concentration (0, 0.01, 0.05, 0.1, 0.25, 0.5, 1, 2, and 5 µM) for 72 hours, concentration-dependent cell viability (MTS assay) inhibition and IC50 values according to the cell viability inhibition were confirmed and shown in FIG. 13. […]

BT549 [2] = experiment: MTS assay cell viability, BT549; type: cell-based; conditions: Homo sapiens, BT-549, 72 hours, read-out: IC50 values according to the cell viability inhibition
Description: as §1, §2

MDA-MB-231 [3] = experiment: Morphological changes of cells by optical microscope, MDA-MB-231; type: cell-based, human; conditions: 72 hours; for morphological changes of cells: 0.5 µM
Description: (§3) After treating the MDA-MB-231 and BT549 cell lines with the 1-1 compound by concentration (0, 5, 10, and 20 µM) for 72 hours, morphological changes of cells were observed using an optical microscope, which is shown in FIG. 7C.
Subsequently, an experiment was performed as follows to confirm the targeting ability for Compounds 1-13 and 1-22. After treating the MDA-MB-231 cell line with the 1-22 and 1-13 compounds at a concentration of 0.5 µM for 72 hours, morphological changes of cells were observed using an optical microscope, and micrographs are shown in FIG. 10A. […] In addition, after treating MDA-MB-231 with the 1-22 and 1-13 compounds at a concentration of 0.5 µM for 72 hours, expression of HSP90 chaperon complexes (HSP90, HSP70, HSP27, HSF-1), HSP90 client proteins (EGFR, AKT, JAK2, STAT3), Tubulin targeting ability (Tubulin, mitosis marker p-His H3), and apoptosis-related factors (Cleaved caspase-7, Survivin, Mcl-1) proteins was confirmed using a Western blot technique, which is shown in FIG. 10B.

BT549 [4] = experiment: Morphological changes of cells by optical microscope, BT549; type: cell-based; conditions: 0, 5, 10, and 20 µM, 72 hours
Description: as §3

MDA-MB-231 [5] = experiment: Annexin V/PI staining flow cytometry, MDA-MB-231; type: cell-based, human
Excerpt: (§4) The degree of apoptosis of MDA-MB-231 and BT549 cells by the compound of Formula 1-1 was confirmed by a flow cytometer through Annexin V/PI staining, which is shown in FIG. 7D.

BT549 [6] = experiment: Annexin V/PI staining flow cytometry, BT549; type: cell-based
Excerpt: as §4

[7] = tested on: C-terminal domain of Hsp90; experiment: Hsp90 C-terminal activity by binding analysis with C recombinant protein; conditions: compared to Novobiocin
Excerpt: In order to evaluate the ability to inhibit the C-terminal domain of Hsp90, it was attempted to evaluate the ability to inhibit Hsp90 C-terminal activity through analysis of binding force between the 1-1 compound, a C-terminal Hsp90 inhibitor Novobiocin, and an N-terminal inhibitor Onalespib, and a C recombinant protein.

[8] = tested on: STAT3, c-MET, ERK, and AKT; experiment: Western blot of HSP90 client proteins in MDA-MB-231; type: cell-based, human; conditions: 0, 5, 10, and 20 µM, 72 hours
tubulin = experiment: Western blot of tubulin and apoptosis-related proteins in MDA-MB-231; type: cell-based, human; conditions: 0, 5, 10, and 20 µM, 72 hours
Description: Subsequently, after treating the MDA-MB-231 cell line with the compound of Formula 1-1 by concentration (0, 5, 10, and 20 µM) for 72 hours, degradation of tubulin and expression of apoptosis-related proteins were confirmed by Western blot, which is shown in FIG. 8C.

BT549 [9] = experiment: Propidium iodide DNA content flow cytometry (cell cycle), BT549; type: cell-based; conditions: 0, 5, 10, and 20 µM, 72 hours
[10] = tested on: hematologic cancer cell line HL-60; experiment: MTS assay cell viability, HL-60; type: cell-based; conditions: 0, 0.1, 0.5, 1, 5, and 10 µM, 72 hours
Description: (§5) After treating a hematologic cancer cell line HL-60, a liver cancer cell line HepG2, a lung cancer cell line H1299, a colorectal cancer cell line HCT116, and an ovarian cancer cell line SKOV3 with the chromene-benzimidazole derivative compound 1-22 by concentration (0, 0.1, 0.5, 1, 5, and 10 µM) for 72 hours, concentration-dependent cell viability (MTS assay) inhibition and IC50 values according to the cell viability inhibition were confirmed and shown in FIG. 11.

[11] = tested on: liver cancer cell line HepG2; experiment: MTS assay cell viability, HepG2; type: cell-based; conditions: 0, 0.1, 0.5, 1, 5, and 10 µM, 72 hours
Description: as §5

[12] = tested on: lung cancer cell line H1299; experiment: MTS assay cell viability, H1299; type: cell-based; conditions: 0, 0.1, 0.5, 1, 5, and 10 µM, 72 hours
Description: as §5

[13] = tested on: colorectal cancer cell line HCT116; experiment: MTS assay cell viability, HCT116; type: cell-based; conditions: 0, 0.1, 0.5, 1, 5, and 10 µM, 72 hours
Description: as §5

[14] = tested on: ovarian cancer cell line SKOV3; experiment: MTS assay cell viability, SKOV3; type: cell-based; conditions: 0, 0.1, 0.5, 1, 5, and 10 µM, 72 hours
Description: as §5

[15] = MDA-MB-231 and JIMT-1 treated, cell line of the values not given, 72 hours

IC50 (MDA-MB-231 [1]; MDA-MB-231, 72 hours): 0.273 µM
SMILES: COc1c(NC(=O)Nc2ccc3[nH]c(-c4ccc(F)cc4)nc3c2)ccc2c1C=CC(C)(C)O2 [Compound 1-9, 1-(2-(4-fluorophenyl)-1H-benzo[d]imidazol-5-yl)-3-(5-methoxy-2,2-dimethyl-2H-chromen-6-yl)urea]

IC50 (MDA-MB-231 [1]; MDA-MB-231, 72 hours): 0.96 µM
SMILES: COc1c(NC(=O)Nc2ccc3[nH]c(-c4ccc(N(C)C)cc4)nc3c2)ccc2c1C=CC(C)(C)O2 [Compound 1-16, 1-(2-(4-(dimethylamino)phenyl)-1H-benzo[d]imidazol-5-yl)-3-(5-methoxy-2,2-dimethyl-2H-chromen-6-yl)urea]

IC50 (MDA-MB-231 [1]; MDA-MB-231, 72 hours): 5.66 µM | IC50 (BT549 [2]): 8.49 µM
SMILES: COc1c(NC(=O)Nc2ccc3[nH]c(Cl)nc3c2)ccc2c1C=CC(C)(C)O2 [Compound 1-1, 1-(2-chloro-1H-benzo[d]imidazol-5-yl)-3-(5-methoxy-2,2-dimethyl-2H-chromen-6-yl)urea]
morphological changes of cells (apoptosis) (MDA-MB-231 [3]; 0, 5, 10, and 20 µM): apoptosis was induced in a concentration-dependent manner | morphological changes of cells (apoptosis) (BT549 [4]): apoptosis was induced in a concentration-dependent manner | degree of apoptosis (MDA-MB-231 [5]): early and late apoptosis were induced | degree of apoptosis (BT549 [6]): early and late apoptosis were induced | C-terminal HSP90 activity [7]: lowered C-terminal HSP90 activity to less than half compared to the existing Novobiocin | protein expression and phosphorylation of HSP90 client proteins [8]: decreases in protein expression and phosphorylation of STAT3, c-MET, ERK, and AKT | degradation of tubulin / tubulin polymerization reaction (tubulin): could inhibit a tubulin polymerization reaction | cell cycle (DNA content) (BT549 [9]): G2/M phase cell cycle arrest

IC50 (MDA-MB-231 [1]; MDA-MB-231, 72 hours): 0.586 µM
SMILES: COc1cc(-c2nc3cc(NC(=O)Nc4ccc5c(c4OC)C=CC(C)(C)O5)ccc3[nH]2)cc(OC)c1OC [Compound 1-17, 1-(5-methoxy-2,2-dimethyl-2H-chromen-6-yl)-3-(2-(3,4,5-trimethoxyphenyl)-1H-benzo[d]imidazol-5-yl)urea]

IC50 (MDA-MB-231 [1]; MDA-MB-231, 72 hours): 0.829 µM
SMILES: COc1c(NC(=O)Nc2ccc3[nH]c(-c4cccc(F)c4)nc3c2)ccc2c1C=CC(C)(C)O2 [Compound 1-10, 1-(2-(3-fluorophenyl)-1H-benzo[d]imidazol-5-yl)-3-(5-methoxy-2,2-dimethyl-2H-chromen-6-yl)urea]

IC50 (MDA-MB-231 [1]; [15]): 0.154 µM
SMILES: COc1c(NC(=O)Nc2ccc3[nH]c(-c4ccc(C#N)cc4)nc3c2)ccc2c1C=CC(C)(C)O2 [Compound 1-13, 1-(2-(4-cyanophenyl)-1H-benzo[d]imidazol-5-yl)-3-(5-methoxy-2,2-dimethyl-2H-chromen-6-yl)urea]
morphological changes of cells (MDA-MB-231 [3]): Typical morphological changes of cell cycle arrest and apoptosis | cell viability inhibition [10]: effective cell viability inhibition | cell viability inhibition [11]: effective cell viability inhibition | cell viability inhibition [12]: effective cell viability inhibition | cell viability inhibition [13]: effective cell viability inhibition | cell viability inhibition [14]: effective cell viability inhibition

IC50 (MDA-MB-231 [1]; MDA-MB-231, 72 hours): 0.335 µM
SMILES: COc1c(NC(=O)Nc2ccc3[nH]c(-c4ccc(Cl)cc4)nc3c2)ccc2c1C=CC(C)(C)O2 [Compound 1-11, 1-(2-(4-chlorophenyl)-1H-benzo[d]imidazol-5-yl)-3-(5-methoxy-2,2-dimethyl-2H-chromen-6-yl)urea]

IC50 (MDA-MB-231 [1]; [15]): 1.06 µM
SMILES: COc1c(NC(=O)Nc2ccc3[nH]c(-c4ccc(F)cc4F)nc3c2)ccc2c1C=CC(C)(C)O2 [Compound 1-19, 1-(2-(2,4-difluorophenyl)-1H-benzo[d]imidazol-5-yl)-3-(5-methoxy-2,2-dimethyl-2H-chromen-6-yl)urea]

IC50 (MDA-MB-231 [1]; MDA-MB-231, 72 hours): 0.452 µM
SMILES: COc1ccc(-c2nc3cc(NC(=O)Nc4ccc5c(c4OC)C=CC(C)(C)O5)ccc3[nH]2)cn1 [Compound 1-15, 1-(5-methoxy-2,2-dimethyl-2H-chromen-6-yl)-3-(2-(6-methoxypyridin-3-yl)-1H-benzo[d]imidazol-5-yl)urea]

IC50 (MDA-MB-231 [1]; [15]): 0.276 µM
SMILES: COc1c(NC(=O)Nc2ccc3[nH]c(-c4ccc(C)cc4)nc3c2)ccc2c1C=CC(C)(C)O2 [Compound 1-22, 1-(5-methoxy-2,2-dimethyl-2H-chromen-6-yl)-3-(2-(p-tolyl)-1H-benzo[d]imidazol-5-yl)urea]
morphological changes of cells (MDA-MB-231 [3]): Typical morphological changes of cell cycle arrest and apoptosis | cell viability inhibition [10]: effective cell viability inhibition | cell viability inhibition [11]: effective cell viability inhibition | cell viability inhibition [12]: effective cell viability inhibition | cell viability inhibition [13]: effective cell viability inhibition | cell viability inhibition [14]: effective cell viability inhibition

— patent EP4733300A1, “NOVEL CHROMENE-BENZIMIDAZOLE DERIVATIVE OR PHARMACEUTICALLY ACCEPTABLE SALT THEREOF, AND USE THEREOF” (Korea University Research and Business Foundation, priority 2023, dated 2024)
